Values quoted from earlier work in patent publication US7919468B2, “Compounds useful as modulators of the proteasome activity” (Centre National de la Recherche Scientifique (C.N.R.S.), priority 2005, dated 2011).

Columns and labels:
Conditions in all cases: cited from earlier work
cathepsin A = molecular target: T1, cathepsin A (Homo sapiens, UniProt P10619)
T1 sequence (P10619 29-480): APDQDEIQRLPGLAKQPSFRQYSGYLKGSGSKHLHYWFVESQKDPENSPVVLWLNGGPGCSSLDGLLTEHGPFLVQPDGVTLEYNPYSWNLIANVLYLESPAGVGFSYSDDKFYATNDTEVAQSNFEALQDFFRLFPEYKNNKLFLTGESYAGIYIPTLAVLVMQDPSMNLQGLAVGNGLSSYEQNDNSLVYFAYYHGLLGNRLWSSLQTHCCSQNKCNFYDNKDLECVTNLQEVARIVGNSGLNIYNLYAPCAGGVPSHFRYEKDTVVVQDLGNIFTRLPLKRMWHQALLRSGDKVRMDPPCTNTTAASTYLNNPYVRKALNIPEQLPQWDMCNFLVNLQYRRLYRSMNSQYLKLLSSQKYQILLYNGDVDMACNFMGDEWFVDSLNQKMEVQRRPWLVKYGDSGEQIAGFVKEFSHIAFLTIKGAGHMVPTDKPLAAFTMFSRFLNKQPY

[1] = molecular target: cytosolic tripeptidyl peptidase II (Homo sapiens, UniProt P29144)
Chain of cytosolic tripeptidyl peptidase II (P29144 whole entry): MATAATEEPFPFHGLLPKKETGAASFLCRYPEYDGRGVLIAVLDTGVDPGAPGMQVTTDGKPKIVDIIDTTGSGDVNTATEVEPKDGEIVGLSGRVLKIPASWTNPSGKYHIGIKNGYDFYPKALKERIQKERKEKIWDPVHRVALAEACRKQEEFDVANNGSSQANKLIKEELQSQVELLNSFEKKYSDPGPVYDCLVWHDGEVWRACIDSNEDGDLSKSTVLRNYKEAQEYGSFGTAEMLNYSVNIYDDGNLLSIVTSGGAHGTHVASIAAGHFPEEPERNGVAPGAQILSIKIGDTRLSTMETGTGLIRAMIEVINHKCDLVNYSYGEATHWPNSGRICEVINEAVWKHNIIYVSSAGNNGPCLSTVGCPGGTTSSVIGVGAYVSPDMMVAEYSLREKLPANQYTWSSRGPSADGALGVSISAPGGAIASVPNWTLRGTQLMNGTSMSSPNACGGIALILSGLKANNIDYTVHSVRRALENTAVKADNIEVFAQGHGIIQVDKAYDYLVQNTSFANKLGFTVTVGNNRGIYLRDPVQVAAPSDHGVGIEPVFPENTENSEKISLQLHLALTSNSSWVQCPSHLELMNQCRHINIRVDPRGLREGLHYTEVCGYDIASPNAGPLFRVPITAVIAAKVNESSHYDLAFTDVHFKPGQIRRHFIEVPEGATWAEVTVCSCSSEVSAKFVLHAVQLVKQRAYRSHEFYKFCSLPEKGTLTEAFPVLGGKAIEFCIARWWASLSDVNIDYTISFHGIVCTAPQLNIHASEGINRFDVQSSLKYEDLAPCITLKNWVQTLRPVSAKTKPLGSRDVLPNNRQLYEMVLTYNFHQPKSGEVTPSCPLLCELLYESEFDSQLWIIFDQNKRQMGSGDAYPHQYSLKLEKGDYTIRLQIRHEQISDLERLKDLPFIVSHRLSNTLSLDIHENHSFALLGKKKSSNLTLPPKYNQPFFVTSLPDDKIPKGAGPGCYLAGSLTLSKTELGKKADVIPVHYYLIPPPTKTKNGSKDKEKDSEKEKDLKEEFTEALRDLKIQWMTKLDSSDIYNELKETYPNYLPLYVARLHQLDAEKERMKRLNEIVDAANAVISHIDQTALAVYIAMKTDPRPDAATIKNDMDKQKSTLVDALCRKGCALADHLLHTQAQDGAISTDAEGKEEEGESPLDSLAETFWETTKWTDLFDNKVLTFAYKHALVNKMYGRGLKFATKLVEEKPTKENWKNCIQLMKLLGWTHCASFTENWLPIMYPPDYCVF

trypsin = molecular target: T2, trypsin (Bos taurus, UniProt P00760)
T2 construct: gene PRSS1
T2 sequence (P00760 24-246): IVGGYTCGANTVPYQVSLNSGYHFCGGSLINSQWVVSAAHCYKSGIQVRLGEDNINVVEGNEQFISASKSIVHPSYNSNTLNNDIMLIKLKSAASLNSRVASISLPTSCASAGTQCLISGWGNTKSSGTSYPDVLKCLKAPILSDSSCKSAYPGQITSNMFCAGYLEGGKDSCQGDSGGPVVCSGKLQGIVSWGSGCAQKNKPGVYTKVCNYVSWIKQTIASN

cathepsin-L = cathepsin-L (Homo sapiens, UniProt P07711)
Chain of cathepsin-L (P07711 114-333, species assumed): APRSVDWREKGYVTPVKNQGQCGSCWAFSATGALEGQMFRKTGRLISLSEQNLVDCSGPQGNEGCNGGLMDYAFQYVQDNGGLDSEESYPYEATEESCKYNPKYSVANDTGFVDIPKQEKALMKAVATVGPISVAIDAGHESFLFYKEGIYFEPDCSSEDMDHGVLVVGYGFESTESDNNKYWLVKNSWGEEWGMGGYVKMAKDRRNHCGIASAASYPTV

m-calpain = molecular target: T3, m-calpain (Homo sapiens, UniProt P17655)
T3 sequence (P17655 1-700): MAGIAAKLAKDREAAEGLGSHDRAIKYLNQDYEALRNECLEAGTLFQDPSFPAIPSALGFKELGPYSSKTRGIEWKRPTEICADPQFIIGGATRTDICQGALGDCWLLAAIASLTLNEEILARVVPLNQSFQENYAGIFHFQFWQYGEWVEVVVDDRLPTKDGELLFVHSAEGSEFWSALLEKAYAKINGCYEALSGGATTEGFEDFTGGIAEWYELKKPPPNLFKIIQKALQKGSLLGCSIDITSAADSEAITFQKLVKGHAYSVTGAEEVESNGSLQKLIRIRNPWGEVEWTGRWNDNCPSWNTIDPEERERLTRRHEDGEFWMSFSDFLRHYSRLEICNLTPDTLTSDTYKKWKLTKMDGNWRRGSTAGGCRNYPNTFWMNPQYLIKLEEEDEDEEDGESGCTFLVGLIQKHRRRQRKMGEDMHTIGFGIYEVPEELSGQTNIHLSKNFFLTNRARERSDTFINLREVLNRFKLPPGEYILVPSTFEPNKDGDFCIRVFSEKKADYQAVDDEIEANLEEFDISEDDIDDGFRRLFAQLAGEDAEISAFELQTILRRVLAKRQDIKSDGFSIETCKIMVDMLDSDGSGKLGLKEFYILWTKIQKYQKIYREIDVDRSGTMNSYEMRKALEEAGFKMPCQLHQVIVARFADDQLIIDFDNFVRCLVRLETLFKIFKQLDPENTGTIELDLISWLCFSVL
T3 sequence (P04632 1-268 partner): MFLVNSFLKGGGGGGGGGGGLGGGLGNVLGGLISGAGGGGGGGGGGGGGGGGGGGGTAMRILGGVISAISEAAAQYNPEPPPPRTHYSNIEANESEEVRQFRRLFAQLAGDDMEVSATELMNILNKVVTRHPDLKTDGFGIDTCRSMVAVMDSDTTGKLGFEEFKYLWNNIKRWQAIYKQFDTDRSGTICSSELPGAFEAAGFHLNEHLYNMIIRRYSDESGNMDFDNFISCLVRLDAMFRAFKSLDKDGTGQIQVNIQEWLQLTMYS

Structure (SMILES)	inhibition of cathepsin A (cathepsin A)	inhibition of tripeptidyl peptidase II [1]	inhibition of trypsin (trypsin)	inhibition of cathepsin-L (cathepsin-L)	inhibition of m-calpain (m-calpain)
CC(=O)N[C@@H](CSC(=O)[C@]1([C@@H](O)C(C)C)NC(=O)[C@H](C)[C@@H]1O)C(=O)O [Lactacystin, lactacystin]	inhibited	inhibited			
C/C=C\NC(=O)[C@H]1NC(=O)[C@H](CC(N)=O)NC(=O)[C@@H](NC(=O)C(=O)[C@@H](C)CC)Cc2ccc(O)c(c2)-c2cccc3c2NC(=O)[C@@]3(O)[C@@H]1O [TMC-95A]			no inhibition	no inhibition	no inhibition
